Results published in patent US12291501B2 (University of Florida Research Foundation, Inc., priority 2021, dated 2025).
Where “and” joins values, the source holds several entries; their conditions need not be identical. Identical values can stand only once.

Columns and labels:
Format in all cases: cell-based
[1] = target: T1, α9 nAChR (Homo sapiens, UniProt Q9UGM1); assay: Two-electrode voltage-clamp, agonist concentration-response, α9 nAChR in Xenopus oocytes; details: for EC50 / α9 Imax: peak currents, ± standard error of fit; for α9 Imax: relative to ACh (Imax = 1)
T1 construct: expressed in transfected cells; host or cells: Xenopus laevis oocytes, injected with in vitro transcribed RNA
T1 sequence (Q9UGM1 26-479 limits assumed): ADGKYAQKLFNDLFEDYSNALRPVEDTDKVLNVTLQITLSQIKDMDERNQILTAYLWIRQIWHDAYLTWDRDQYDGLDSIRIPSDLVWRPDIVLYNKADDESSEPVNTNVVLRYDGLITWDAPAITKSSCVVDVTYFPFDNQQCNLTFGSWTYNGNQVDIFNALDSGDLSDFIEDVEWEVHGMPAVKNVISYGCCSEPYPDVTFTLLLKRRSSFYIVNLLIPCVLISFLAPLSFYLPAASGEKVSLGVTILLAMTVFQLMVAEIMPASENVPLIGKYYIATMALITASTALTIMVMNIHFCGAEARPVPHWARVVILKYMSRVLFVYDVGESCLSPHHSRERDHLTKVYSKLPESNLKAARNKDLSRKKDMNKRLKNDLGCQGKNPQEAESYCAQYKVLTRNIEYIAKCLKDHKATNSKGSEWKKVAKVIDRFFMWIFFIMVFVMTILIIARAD
From the text: (§1) Electrophysiology: Xenopus oocytes were microinjected with RNAs to produce functional nAChR which were characterized by two-electrode voltage-clamp measurements. FIGS. 5A-7D present concentration-response curves for the new compounds evaluated with α7, α9, and α9α10 receptors. Table 1 presents the values for Imax and EC50 with these receptors and Table 2 summarizes inhibition data for the compounds with heteromeric nAChR.
(§2) Molecular Biology: Plasmid DNAs encoding the human α7 and heteromeric nAChR were obtained from Jon Lindstrom (University of Pennsylvania, Philadelphia, PA). Mouse muscle subunit clones were obtained from Jim Boulter (Salk Institute, La Jolla CA) and Paul Gardner (Dartmouth, Hanover NH). The human resistance-to-cholinesterase 3 ([…]) clone was obtained from Millet Treinin (Hebrew University, Jerusalem, Israel) and RNA co-injected with α7 to improve the level and speed of receptor expression without affecting their pharmacological properties. Plasmid DNA encoding the human α10 nAChR was obtained from J. Michael McIntosh. Plasmid DNA encoding the human α9 nAChR and the human receptor-associated protein of the synapse (RAPSYN) with codon optimization for expression in Xenopus laevis were obtained from Katrin Richter. RAPSYN RNA was co-injected with the α9 and α10 to improve expression (Richter et al., (2022) Front. Cell Neurosci. 16: 779081). After linearization and purification of the plasmid DNAs, RNAs were prepared using the mMessage mMachine in vitro RNA transcription kit (Ambion, Austin, TX). Frogs were maintained in the Animal Care Service facility of the University of Florida, and all procedures were approved by the University of Florida Institutional Animal Care and Use Committee (approval number 202002669). In brief, the animals were first anesthetized for 15-20 min in 1.5 l frog tank water containing 1 g of MS-222 buffered with sodium bicarbonate. Oocytes were obtained surgically from mature female Xenopus laevis (Nasco, Ft. Atkinson WI, USA) and treated with 1.4 mg/ml type 1 collagenase (Worthington Biochemicals, Freehold NJ, USA) for 2-4 h at rt in Ca2+-free Barth's solution (88 mM NaCl, 1 mM KCl, 2.38 mM NaHCO3, 0.82 mM MgSO4, 15 mM HEPES, and 12 mg/l tetracycline, pH 7.6) to remove the ovarian tissue and the follicular layers. Stage V oocytes were injected with 4-6 ng CHRNA7 RNA and 2-3 ng RIC3 RNA (2:1 ratio) in 50 nl water, or with 12 ng CHRNA9 RNA and 3 ng RAPSN RNA, or along with 12 ng CHRNA10 RNA in 50 nl water. Oocytes were maintained in Barth's solution containing 0.32 mM Ca(NO3)2 and 0.41 mM CaCl2, and recordings were conducted 2-20 days after injection.
(§3) Electrophysiology: Two-electrode voltage-clamp experiments were conducted using OpusXpress 6000A (Molecular Devices, Union City CA, USA). Both the voltage and current electrodes were filled with 3 M KCl. Oocytes were voltage-clamped at −60 mV at rt. The oocytes were perfused with Ringer's solution (115 mM NaCl, 2.5 mM KCl, 1.8 mM CaCl2, 10 mM HEPES, 1 μM atropine, pH 7.2) at 2 ml/min. […] Drug applications were 12 s in duration followed by 181 s washout periods.
(§4) The responses were calculated as both peak-current amplitudes and net charge. Data were collected at 50 Hz, filtered at 20 Hz, and analyzed by Clampfit (Molecular Devices) and Excel (Microsoft, Redmond, WA, United States). Data are expressed as means±SEM from at least five oocytes for each experiment and plotted with Kaleidagraph 4.5.2 (Abelbeck Software, Reading, PA, United States). Each episode of data acquisition was a total of 210 s and included an initial 30 s period used to define the baseline for the drug-evoked responses. After 30 s, drugs were applied, and the following 120 s were defined as the drug response period for analysis. […] The values for the curve fits were generated using the Levenberg-Marquardt algorithm to obtain the best Chi-Square fit to the Hill equation using the Kaleidagraph 4.5.2 plotting program. […]

[2] = target: T2, α9α10 nAChR (Homo sapiens, UniProt Q9GZZ6+Q9UGM1); assay: Two-electrode voltage-clamp, agonist concentration-response, α9α10 nAChR in Xenopus oocytes; details: peak currents, ± standard error of fit; for α9α10 Imax: relative to ACh (Imax = 1)
T2 construct: expressed in transfected cells; host or cells: Xenopus laevis oocytes, injected with in vitro transcribed RNA
T2 sequence (Q9UGM1 26-479 limits assumed): as above
T2 sequence (Q9GZZ6 25-450): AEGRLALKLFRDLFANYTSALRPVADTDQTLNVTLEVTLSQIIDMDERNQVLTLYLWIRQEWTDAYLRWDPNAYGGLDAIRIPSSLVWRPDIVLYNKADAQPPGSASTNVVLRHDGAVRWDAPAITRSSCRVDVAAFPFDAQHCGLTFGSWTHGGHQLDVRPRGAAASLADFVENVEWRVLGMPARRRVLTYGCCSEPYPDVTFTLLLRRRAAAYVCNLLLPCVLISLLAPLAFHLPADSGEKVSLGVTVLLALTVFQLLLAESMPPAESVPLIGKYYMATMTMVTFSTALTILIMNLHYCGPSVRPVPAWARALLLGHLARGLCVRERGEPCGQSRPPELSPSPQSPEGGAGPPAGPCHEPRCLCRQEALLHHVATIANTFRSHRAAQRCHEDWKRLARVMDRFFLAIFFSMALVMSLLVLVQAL
From the text: as §1, §2, §3, §4

[3] = target: T3, α7 nAChR (Homo sapiens, UniProt P36544); assay: Two-electrode voltage-clamp, agonist concentration-response, α7 nAChR in Xenopus oocytes; details: for EC50 / α7 Imax: net charge, ± standard error of fit; for α7 Imax: relative to ACh (Imax = 1)
T3 construct: expressed in transfected cells; host or cells: Xenopus laevis oocytes, injected with in vitro transcribed RNA
T3 sequence (P36544 23-502): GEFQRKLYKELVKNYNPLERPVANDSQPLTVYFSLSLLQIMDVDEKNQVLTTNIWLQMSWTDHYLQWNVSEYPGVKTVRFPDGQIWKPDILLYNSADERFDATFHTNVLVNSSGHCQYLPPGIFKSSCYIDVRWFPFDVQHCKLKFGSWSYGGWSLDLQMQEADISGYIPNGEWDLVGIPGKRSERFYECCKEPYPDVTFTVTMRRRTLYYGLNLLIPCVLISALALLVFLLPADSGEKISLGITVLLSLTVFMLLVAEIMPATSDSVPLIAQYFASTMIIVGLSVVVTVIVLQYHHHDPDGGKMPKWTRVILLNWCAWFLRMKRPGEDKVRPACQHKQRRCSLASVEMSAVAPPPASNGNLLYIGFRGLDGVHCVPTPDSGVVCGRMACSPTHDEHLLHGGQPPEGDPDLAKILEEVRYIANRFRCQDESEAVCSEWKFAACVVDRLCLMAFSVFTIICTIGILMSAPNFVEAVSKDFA
From the text: as §1
(§5) Molecular Biology: Plasmid DNAs encoding the human α7 and heteromeric nAChR were obtained from Jon Lindstrom (University of Pennsylvania, Philadelphia, PA). Mouse muscle subunit clones were obtained from Jim Boulter (Salk Institute, La Jolla CA) and Paul Gardner (Dartmouth, Hanover NH). […] Plasmid DNA encoding the human α10 nAChR was obtained from J. Michael McIntosh. Plasmid DNA encoding the human α9 nAChR and the human receptor-associated protein of the synapse (RAPSYN) with codon optimization for expression in Xenopus laevis were obtained from Katrin Richter. […] After linearization and purification of the plasmid DNAs, RNAs were prepared using the mMessage mMachine in vitro RNA transcription kit (Ambion, Austin, TX). […] Oocytes were maintained in Barth's solution containing 0.32 mM Ca(NO3)2 and 0.41 mM CaCl2, and recordings were conducted 2-20 days after injection.
(§6) Electrophysiology: Two-electrode voltage-clamp experiments were conducted using OpusXpress 6000A (Molecular Devices, Union City CA, USA). Both the voltage and current electrodes were filled with 3 M KCl. Oocytes were voltage-clamped at −60 mV at rt.
(§7) The responses were calculated as both peak-current amplitudes and net charge. Data were collected at 50 Hz, filtered at 20 Hz, and analyzed by Clampfit (Molecular Devices) and Excel (Microsoft, Redmond, WA, United States). Data are expressed as means±SEM from at least five oocytes for each experiment and plotted with Kaleidagraph 4.5.2 (Abelbeck Software, Reading, PA, United States). Each episode of data acquisition was a total of 210 s and included an initial 30 s period used to define the baseline for the drug-evoked responses. After 30 s, drugs were applied, and the following 120 s were defined as the drug response period for analysis. […] The values for the curve fits were generated using the Levenberg-Marquardt algorithm to obtain the best Chi-Square fit to the Hill equation using the Kaleidagraph 4.5.2 plotting program. The errors in the tables are the calculated standard errors of the fit parameters based on the goodness of fit.

[4] = target: T3, α7 nAChR; assay: α7 responses to drugs co-applied with the PAM PNU-120596 (silent agonism); details: drug 30 μM + 10 μM PNU-120596; normalized to 30 μM ACh + 10 μM PNU-120596
From the text: as §5, §6, §7

[5] = target: T4, α3β4 nAChR (Homo sapiens, UniProt P30926+P32297); assay: Inhibition of control ACh responses by co-application, α3β4 nAChR in oocytes; details: 3 μM compound co-applied with ACh; fraction of control ACh response
T4 construct: expressed in transfected cells; host or cells: Xenopus laevis oocytes
Experimental: (§8) Initial profiling against heteromeric receptors: The test compounds for their ability to activate or inhibit other nAChR subtypes were evaluated. Agonist activity was evaluated by applying the compounds at 100 or 30 μM to human α4β2 and α3β4 as well as to mouse muscle α1β1εδ nAChR expressed in Xenopus oocytes. […] The inhibitory activity was generally low (Table 3).
as §2, §3, §7

[6] = target: T5, α4β2 nAChR (Homo sapiens, UniProt P17787+P43681); assay: Inhibition of control ACh responses by co-application, α4β2 nAChR in oocytes; details: 3 μM compound co-applied with ACh; fraction of control ACh response
T5 construct: expressed in transfected cells; host or cells: Xenopus laevis oocytes
T5 sequence (P43681 29-627 limits assumed): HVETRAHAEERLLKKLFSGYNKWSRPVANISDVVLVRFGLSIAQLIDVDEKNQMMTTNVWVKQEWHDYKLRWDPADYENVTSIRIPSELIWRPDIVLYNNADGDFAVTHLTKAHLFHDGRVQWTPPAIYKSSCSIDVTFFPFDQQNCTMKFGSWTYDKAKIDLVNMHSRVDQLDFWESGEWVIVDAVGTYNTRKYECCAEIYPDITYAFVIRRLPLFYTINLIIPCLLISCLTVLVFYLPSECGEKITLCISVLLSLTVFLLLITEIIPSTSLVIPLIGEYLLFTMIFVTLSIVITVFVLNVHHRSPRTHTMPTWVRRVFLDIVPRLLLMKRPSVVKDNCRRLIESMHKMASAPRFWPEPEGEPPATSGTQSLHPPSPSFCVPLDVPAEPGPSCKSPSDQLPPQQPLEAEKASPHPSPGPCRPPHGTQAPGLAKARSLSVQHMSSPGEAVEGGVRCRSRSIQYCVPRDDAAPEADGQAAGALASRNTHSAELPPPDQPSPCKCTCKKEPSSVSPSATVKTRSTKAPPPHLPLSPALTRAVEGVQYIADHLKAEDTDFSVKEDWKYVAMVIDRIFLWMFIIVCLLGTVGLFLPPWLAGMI
T5 sequence (P17787 26-502): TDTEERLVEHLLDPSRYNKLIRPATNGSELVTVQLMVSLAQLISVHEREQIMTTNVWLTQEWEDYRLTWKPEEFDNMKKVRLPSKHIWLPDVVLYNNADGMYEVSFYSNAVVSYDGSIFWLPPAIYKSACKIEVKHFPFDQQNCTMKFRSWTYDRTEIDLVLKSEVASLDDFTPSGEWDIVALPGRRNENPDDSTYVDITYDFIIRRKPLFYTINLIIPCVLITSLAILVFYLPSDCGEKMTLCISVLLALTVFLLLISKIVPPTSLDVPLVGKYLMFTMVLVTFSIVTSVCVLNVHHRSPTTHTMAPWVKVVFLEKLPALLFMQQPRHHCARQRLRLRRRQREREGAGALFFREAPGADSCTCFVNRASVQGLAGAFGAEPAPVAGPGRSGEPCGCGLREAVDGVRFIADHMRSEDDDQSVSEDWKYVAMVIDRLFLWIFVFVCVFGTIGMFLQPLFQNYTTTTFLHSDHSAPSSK
Experimental: as §8, §2, §3, §7

[7] = target: T6, α1β1εδ nAChR (Mus musculus, UniProt P02716+P04756+P09690+P20782); assay: Inhibition of control ACh responses by co-application, muscle α1β1εδ nAChR in oocytes; details: 3 μM compound co-applied with ACh; fraction of control ACh response
T6 construct: expressed in transfected cells; host or cells: Xenopus laevis oocytes
T6 sequence (P04756 21-457): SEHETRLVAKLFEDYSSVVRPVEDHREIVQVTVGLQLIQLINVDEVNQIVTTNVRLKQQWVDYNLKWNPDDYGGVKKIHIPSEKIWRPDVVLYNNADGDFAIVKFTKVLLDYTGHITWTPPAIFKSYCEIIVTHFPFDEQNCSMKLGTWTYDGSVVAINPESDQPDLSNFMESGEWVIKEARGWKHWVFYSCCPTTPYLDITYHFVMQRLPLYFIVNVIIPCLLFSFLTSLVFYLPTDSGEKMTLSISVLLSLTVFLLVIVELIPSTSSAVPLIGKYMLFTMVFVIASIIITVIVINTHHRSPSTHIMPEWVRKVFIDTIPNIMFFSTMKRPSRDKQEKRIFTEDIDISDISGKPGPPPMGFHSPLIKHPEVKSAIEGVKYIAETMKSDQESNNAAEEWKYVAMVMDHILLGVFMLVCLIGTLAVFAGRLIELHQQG
T6 sequence (P09690 24-501): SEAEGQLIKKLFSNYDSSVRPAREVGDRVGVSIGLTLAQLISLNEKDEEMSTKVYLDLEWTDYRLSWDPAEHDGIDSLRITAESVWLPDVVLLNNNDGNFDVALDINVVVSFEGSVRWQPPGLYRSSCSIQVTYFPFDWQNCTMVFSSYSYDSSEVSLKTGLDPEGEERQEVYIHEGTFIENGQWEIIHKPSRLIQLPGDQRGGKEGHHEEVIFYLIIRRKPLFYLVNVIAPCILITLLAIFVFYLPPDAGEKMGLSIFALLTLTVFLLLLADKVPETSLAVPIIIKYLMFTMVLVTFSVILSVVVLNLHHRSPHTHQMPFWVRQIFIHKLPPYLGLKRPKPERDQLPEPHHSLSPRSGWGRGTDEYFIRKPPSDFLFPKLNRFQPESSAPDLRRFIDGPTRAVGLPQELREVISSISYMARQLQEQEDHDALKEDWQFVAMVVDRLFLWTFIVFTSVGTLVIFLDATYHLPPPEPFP
T6 sequence (P20782 21-493): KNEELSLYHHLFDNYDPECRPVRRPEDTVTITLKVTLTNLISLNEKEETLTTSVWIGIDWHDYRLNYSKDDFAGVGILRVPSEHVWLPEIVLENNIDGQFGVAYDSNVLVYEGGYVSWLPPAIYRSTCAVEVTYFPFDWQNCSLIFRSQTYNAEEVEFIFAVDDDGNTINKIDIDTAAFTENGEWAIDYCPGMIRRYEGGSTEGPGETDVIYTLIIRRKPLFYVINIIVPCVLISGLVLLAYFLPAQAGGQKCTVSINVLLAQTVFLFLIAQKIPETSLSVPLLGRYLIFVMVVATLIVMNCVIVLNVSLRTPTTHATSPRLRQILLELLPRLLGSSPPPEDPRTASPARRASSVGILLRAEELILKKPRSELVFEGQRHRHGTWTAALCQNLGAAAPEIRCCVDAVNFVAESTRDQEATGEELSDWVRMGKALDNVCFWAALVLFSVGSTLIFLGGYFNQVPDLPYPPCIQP
T6 sequence (P02716 25-520): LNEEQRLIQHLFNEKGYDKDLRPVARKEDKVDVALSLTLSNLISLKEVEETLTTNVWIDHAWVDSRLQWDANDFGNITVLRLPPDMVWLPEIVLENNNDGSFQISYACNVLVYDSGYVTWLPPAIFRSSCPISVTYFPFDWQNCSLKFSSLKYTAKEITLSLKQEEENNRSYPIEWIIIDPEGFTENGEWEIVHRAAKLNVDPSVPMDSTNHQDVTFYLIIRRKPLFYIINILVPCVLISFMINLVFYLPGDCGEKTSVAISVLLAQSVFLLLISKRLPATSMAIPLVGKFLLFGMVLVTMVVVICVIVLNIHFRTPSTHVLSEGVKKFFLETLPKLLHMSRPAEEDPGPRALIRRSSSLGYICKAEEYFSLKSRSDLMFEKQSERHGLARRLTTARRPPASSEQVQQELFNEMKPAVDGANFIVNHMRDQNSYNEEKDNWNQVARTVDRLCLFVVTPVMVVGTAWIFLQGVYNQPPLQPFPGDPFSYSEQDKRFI
Experimental: as §8, §2, §3, §7

SMILES	Agonist character / efficacy at α9 [1]	EC50 [1]	Fold greater potency for α9 than for α7 ([1]; ratio of EC50 values)	α9 Imax [1]	EC50 [2]	α9α10 Imax [2]	EC50 [3]	α7 Imax [3]	Response co-applied with PNU-120596, normalized to ACh co-applied with PNU-120596 [4]	Agonist character / efficacy at α7 [3]	Effect of co-application on the control ACh responses, α3β4 [5]	Effect of co-application on the control ACh responses, α4β2 [6]	Effect of co-application on the control ACh responses, α1β1εδ [7]
CC[N+]1(CC)CCN(c2ccc(C(N)=O)cc2)CC1 [Compound 1, 4-(4-carbamoylphenyI)-1,1-diethylpiperazin-1-ium iodide, reference compound]	full α9 agonist	1.15 ± 0.24 µM	66 fold	0.80 ± 0.03	13 ± 11 µM	1.19 ± 0.25	76 ± 2 µM	0.34 ± 0.01 and 0.34	0.18				
CC[N+]1(CC)CCN(c2ccc(C(=O)N3CCCC3)cc2)CC1.[I-] [Compound 3a, 1,1-diethyl-4-(4-(pyrrolidine-1-carbonyl)phenyl)piperazin-1-ium iodide]	moderate efficacy	45 ± 22 µM		0.69 ± 0.09	15 ± 3.1 µM	0.56 ± 0.04	500 ± 500 µM	0.06 ± 0.11 and 0.06	0.01	lost agonism	0.849 ± 0.034	0.919 ± 0.022	0.541 ± 0.048
CCCNC(=O)c1ccc(N2CC[N+](CC)(CC)CC2)cc1.[I-] [Compound 3b, 1,1-diethyl-4-(4-(propylcarbamoyl)phenyl)piperazin-1-ium iodide]		9 ± 6 µM		1.13 ± 0.15	11 ± 6 µM	0.79 ± 0.13	280 ± 240 µM	0.38 ± 0.09 and 0.38	0.19		0.650 ± 0.039	0.946 ± 0.032	0.709 ± 0.086
